Measurements reported in the supplement of paper PMC10307832.

Columns and labels:
Assay in all cases: relative viability (nuclei count vs DMSO), 5 days (fraction); higher = more cells survive
[1] = compound: OCc1c[nH]c2ccccc12 [Indole-3-carbinol] + CCNC(=O)c1noc(-c2cc(C(C)C)c(O)cc2O)c1-c1ccc(CN2CCOCC2)cc1 [Luminespib] (partner 0.01 µM)
Summary of the method: (§1)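 Relative viability was taken as the ratio of nuclei in treated wells to nuclei in vehicle wells. Lung cancer cell lines in 1536-well plates received compounds by pin tool one day after seeding, either one drug alone or a fixed anchor-drug dose plus five library-drug doses (not always all listed) in √10 steps. Nuclei were counted on 4× images after 5 days of treatment, and values are medians of duplicate plates.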

[2] = compound: OCc1c[nH]c2ccccc12 [Indole-3-carbinol] + CC(C)C[C@H](NC(=O)[C@H](Cc1ccccc1)NC(=O)c1cnccn1)B(O)O [Bortezomib] (partner 0.002 µM)
Summary of the method: as §1

[3] = compound: OCc1c[nH]c2ccccc12 [Indole-3-carbinol] + COc1cc2c(Oc3ccc(NC(=O)C4(C(=O)Nc5ccc(F)cc5)CC4)cc3F)ccnc2cc1OCCCN1CCOCC1 [Foretinib] (partner 0.25 µM)
Summary of the method: as §1

[4] = compound: OCc1c[nH]c2ccccc12 [Indole-3-carbinol] + Cc1cc(Nc2cc(N3CCN(C)CC3)nc(Sc3ccc(NC(=O)C4CC4)cc3)n2)n[nH]1 [Tozasertib] (partner 0.1 µM)
Summary of the method: as §1

[5] = compound: OCc1c[nH]c2ccccc12 [Indole-3-carbinol] + O=C(CCCCCCC(=O)Nc1ccccc1)NO [Vorinostat] (partner 1 µM)
Summary of the method: as §1

Cell Line	relative viability ([1]; first compound 0.253 µM)	relative viability ([1]; first compound 0.8 µM)	relative viability ([1]; first compound 2.53 µM)	relative viability ([1]; first compound 8 µM)	relative viability ([2]; first compound 0.253 µM)	relative viability ([2]; first compound 0.8 µM)	relative viability ([2]; first compound 2.53 µM)	relative viability ([2]; first compound 8 µM)	relative viability ([3]; first compound 0.253 µM)	relative viability ([3]; first compound 0.8 µM)	relative viability ([3]; first compound 2.53 µM)	relative viability ([3]; first compound 8 µM)	relative viability ([4]; first compound 0.253 µM)	relative viability ([4]; first compound 0.8 µM)	relative viability ([4]; first compound 2.53 µM)	relative viability ([4]; first compound 8 µM)	relative viability ([5]; first compound 0.253 µM)	relative viability ([5]; first compound 0.8 µM)	relative viability ([5]; first compound 2.53 µM)	relative viability ([5]; first compound 8 µM)
201T	1.03	1.01	1.07	1	1.17	0.996	1.11	1.1	1.1	1.07	1.04	1.01	0.958	0.978	1.02	0.969	1.1	0.88	0.978	0.927
A-427	0.932	0.96	0.908	0.895	0.937	0.992	1.03	0.886	0.941	1.14	1.01	0.94	0.193	0.226	0.226	0.224	0.836	0.818	0.86	0.825
ABC-1		0.696	0.803	0.509	0.297	0.292	0.324	0.33	0.903	0.961	1.13	1	0.186	0.214	0.164	0.158	1.59	1.05	1.23	1.1
BEN	0.346	0.188	0.377	0.379	0.91	0.729	0.966	0.727	0.566	0.501	0.651	0.624	0.463		0.479	0.554	0.512	0.512	0.63	0.631
CAL-12T	0.393	0.533	0.592	0.767	0.983	1	0.842	0.819	1.13	1.17	1.01	1.09	0.291	0.351	0.335	0.278	0.844	0.808	0.908	0.741
COR-L23	0.74	0.754	0.712	0.512	0.926	1.14	0.899	0.883	0.992	0.977	1.1	0.951	0.201	0.243	0.296	0.185	0.445	0.492	0.459	0.371
COR-L 105	0.758	0.723	0.651	0.656	0.847	0.733	0.812	0.806	1.22	0.838	0.963	1.03	0.366	0.385	0.378	0.347	0.916	0.847	0.73	0.862
ChaGo-K-1	0.649	0.658	0.576	0.557	0.871	0.988	0.896	1.06	0.955	0.941	0.872	0.894	0.218	0.219	0.231	0.211	0.792	0.729	0.76	0.73
EKVX	0.972	0.884	0.908	0.848	1.24	1.1	1.12	1.04	0.859	0.97	0.844	0.829	0.423	0.428	0.421	0.383	0.745	0.631	0.942	0.697
EMC-BAC-2	1.2	1.23	1.09	1.06	0.994	1.01	1.08	1.02	1.02	1.01	0.917	0.923	0.267	0.309	0.25	0.259	0.423	0.444	0.421	0.447
EPLC-272H	0.267	0.23	0.377	0.345	1.27	0.925	0.985	0.837	0.67	0.72	0.724	0.709	0.33	0.267	0.369	0.396	0.265	0.534	0.409	0.523
H3255	0.875	0.9	0.847	0.857	0.899	0.852	0.748	0.732	0.985	0.669	1.09	0.917	0.691	0.599	0.635	0.58	0.753	0.811	0.955	0.778
HARA	0.616	0.576	0.675	0.55	1.2	1.06	1.11	1.06	0.777	0.932	1.09	0.809	0.119	0.125	0.12	0.179	0.515	0.627	0.505	0.511
HCC-15	0.529	0.247	0.266	0.225	1.08	1.08	1.1	1.06	1.04	1.14	1.07	1.01	0.348	0.52	0.495	0.398	0.909	0.929	0.963	0.789
HCC-44	1.04	0.812	1.1	0.942	0.911	1.03	0.888	0.869					0.97	0.575	1.11	0.922	1.15	1.16	1.12	1.03
HCC-78					0.416	0.51	0.403	0.554	0.558	0.526	0.592	0.523	0.301	0.454	0.569	0.415	0.508	0.533	0.443	0.452
HCC-366					0.986	0.858	1.05	1.09	0.959	0.861	0.902	0.926	0.103	0.125	0.0939	0.196	0.355	0.331	0.351	0.281
HCC-827	0.579	0.622	0.67	0.644	0.873	0.986	1.03	0.986	1.07	1.02	1.03	1.1	0.4	0.398	0.429	0.383	0.767	0.903	0.896	0.839

Cell Line	relative viability ([1]; first compound 0.253 µM)	relative viability ([1]; first compound 0.8 µM)	relative viability ([1]; first compound 2.53 µM)	relative viability ([1]; first compound 8 µM)	relative viability ([2]; first compound 0.253 µM)	relative viability ([2]; first compound 0.8 µM)	relative viability ([2]; first compound 2.53 µM)	relative viability ([2]; first compound 8 µM)	relative viability ([3]; first compound 0.253 µM)	relative viability ([3]; first compound 0.8 µM)	relative viability ([3]; first compound 2.53 µM)	relative viability ([3]; first compound 8 µM)	relative viability ([4]; first compound 0.253 µM)	relative viability ([4]; first compound 0.8 µM)	relative viability ([4]; first compound 2.53 µM)	relative viability ([4]; first compound 8 µM)	relative viability ([5]; first compound 0.253 µM)	relative viability ([5]; first compound 0.8 µM)	relative viability ([5]; first compound 2.53 µM)	relative viability ([5]; first compound 8 µM)
HOP-62	0.911	0.927	0.937	0.831	0.989	0.711	0.82	0.521	1.12	1.23	1.16	1.05	0.365	0.432	0.391	0.332	0.674	0.534	0.714	0.582
IA-LM					0.842	0.898	0.82	0.789	1.07	1.37	1.11	1.09					1.08	1.03	1.11	0.96
LC-2-ad	1.13	1.15	1.26	0.953	1.13	1.11	0.994	0.974	0.921	0.852	1.05	0.889	0.404	0.417	0.537	0.468	0.765	0.742	0.696	0.662
LCLC-97TM1	0.823	0.935	0.859	0.865	0.651	0.686	0.778	0.447	0.982	0.973	1.03	0.983	0.324	0.299	0.235	0.251	0.858	1.01	0.818	0.646
LCLC-103H	0.873	0.939	0.901	0.811	1.06	1.14	1.2	0.958	0.691	0.783	0.669	0.639	0.499	0.554	0.538	0.433	0.894	0.736	0.829	0.706
LK-2	0.214	0.203	0.229	0.181					1.39	1.2	1.42	1.07	0.162	0.167	0.194	0.17	0.193	0.295	0.333	0.448
LOU-NH91	0.369	0.342	0.306	0.356	0.497	0.459	0.566	0.522	0.927	0.964	0.963	0.924	0.65	0.693	0.749	0.634	0.924	0.865	0.961	0.945
LU99A	0.237	0.199	0.209	0.207	1.31	1.11	1.06	1.02	0.828	0.87	0.769	0.777	0.224	0.317	0.315	0.257	0.504	0.514	0.59	0.455
NCI-H358	0.366	0.447	0.458	0.233					0.805	0.69	0.73	0.73	0.097	0.131	0.113	0.0974	0.763	0.752	0.684	0.624
NCI-H522	1.17	1.05	1.1	0.949									0.63	0.525	0.567	0.538	1.1	0.694	0.808	0.95
NCI-H1395	0.606	0.813	0.817	0.686					0.818	1.1	0.97	0.914	0.705	0.77	0.734	0.758	0.694	0.65	0.628	1.05
NCI-H1703					0.274	0.389	0.358	0.453	0.342	0.376	0.309	0.326								
NCI-H1792	0.416	0.484	0.368	0.398	0.965	0.89	1.03	0.934												
NCI-H1793	0.171	0.179	0.142	0.175					0.728	0.78	0.685	0.656	0.332	0.389	0.339	0.395	0.915	0.798	0.898	0.632
NCI-H1944	0.792	0.682	0.842	0.79					0.876	0.775	0.846	0.77	0.245	0.241	0.264	0.246	0.529	0.472	0.595	0.523
NCI-H2170	0.74	0.665	0.841	0.624					1.04	0.861	0.815	0.943	0.703	0.712	0.79	0.717	0.906	0.832	0.851	0.778
SK-MES-1	0.751	0.88	0.667	0.798					1.03	0.922	0.946	0.882	0.904	1.04	0.932	0.907	1.16	1.08	1.08	0.986
SW 900	0.186	0.155	0.169	0.166					0.796	1.05	0.877	0.819	0.548	0.726	0.616	0.548	0.556	0.453	0.573	0.622
